{"source": "patent US20140315889A1", "about": "“HYDROXAMATE DERIVATIVES FOR HDAC INHIBITOR, AND THE PHARMACEUTICAL COMPOSITION COMPRISING THEREOF” (CHONG KUN DANG PHARMACEUTICAL CORP., priority 2011, published 2014)", "assay_type_in_all_cases": "biochemical", "key": {"HDAC7": {"molecular_target": "T1, HDAC7 (Homo sapiens, UniProt Q8WUI4)", "T1 sequence (Q8WUI4 1-952)": "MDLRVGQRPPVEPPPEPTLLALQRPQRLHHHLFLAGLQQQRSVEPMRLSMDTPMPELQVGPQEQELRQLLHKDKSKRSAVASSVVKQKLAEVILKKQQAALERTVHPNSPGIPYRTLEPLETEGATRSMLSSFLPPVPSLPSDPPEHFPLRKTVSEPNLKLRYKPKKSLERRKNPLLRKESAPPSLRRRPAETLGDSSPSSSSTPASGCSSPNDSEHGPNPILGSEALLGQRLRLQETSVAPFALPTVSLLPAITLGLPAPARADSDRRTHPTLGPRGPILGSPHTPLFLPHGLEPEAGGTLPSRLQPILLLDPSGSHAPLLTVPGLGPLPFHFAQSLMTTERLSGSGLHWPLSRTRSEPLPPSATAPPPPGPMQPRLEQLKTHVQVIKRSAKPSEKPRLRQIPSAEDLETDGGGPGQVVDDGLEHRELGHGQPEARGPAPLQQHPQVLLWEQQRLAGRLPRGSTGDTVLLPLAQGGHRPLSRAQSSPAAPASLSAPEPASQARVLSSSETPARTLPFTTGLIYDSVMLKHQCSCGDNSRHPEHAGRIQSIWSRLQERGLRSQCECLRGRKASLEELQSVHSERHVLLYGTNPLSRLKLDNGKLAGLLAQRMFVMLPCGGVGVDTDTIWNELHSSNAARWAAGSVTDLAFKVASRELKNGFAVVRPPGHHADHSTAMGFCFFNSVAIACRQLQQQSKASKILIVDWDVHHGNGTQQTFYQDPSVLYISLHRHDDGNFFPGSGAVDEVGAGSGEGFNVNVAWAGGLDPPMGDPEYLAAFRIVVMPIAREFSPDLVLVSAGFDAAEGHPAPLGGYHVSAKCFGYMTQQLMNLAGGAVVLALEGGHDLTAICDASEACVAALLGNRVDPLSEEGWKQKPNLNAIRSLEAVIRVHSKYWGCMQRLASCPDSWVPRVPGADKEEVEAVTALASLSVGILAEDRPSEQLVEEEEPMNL", "assay": "HDAC enzyme activity test, HDAC7", "description": "(§1) Then, 0.3 μg of enzyme and 10 μM of substrate per well were added, reacted at 30° C. for 60 minutes. Thereto, Fluor de Lys® Developer II (BML-KI176) was added and reacted for 30 minutes. […] From the data, the respective IC50 were calculated by GraphPad Prism 4.0 program."}, "HDAC9": {"molecular_target": "HDAC9 (Homo sapiens, UniProt Q9UKV0)", "sequence (Q9UKV0 whole entry, species assumed)": "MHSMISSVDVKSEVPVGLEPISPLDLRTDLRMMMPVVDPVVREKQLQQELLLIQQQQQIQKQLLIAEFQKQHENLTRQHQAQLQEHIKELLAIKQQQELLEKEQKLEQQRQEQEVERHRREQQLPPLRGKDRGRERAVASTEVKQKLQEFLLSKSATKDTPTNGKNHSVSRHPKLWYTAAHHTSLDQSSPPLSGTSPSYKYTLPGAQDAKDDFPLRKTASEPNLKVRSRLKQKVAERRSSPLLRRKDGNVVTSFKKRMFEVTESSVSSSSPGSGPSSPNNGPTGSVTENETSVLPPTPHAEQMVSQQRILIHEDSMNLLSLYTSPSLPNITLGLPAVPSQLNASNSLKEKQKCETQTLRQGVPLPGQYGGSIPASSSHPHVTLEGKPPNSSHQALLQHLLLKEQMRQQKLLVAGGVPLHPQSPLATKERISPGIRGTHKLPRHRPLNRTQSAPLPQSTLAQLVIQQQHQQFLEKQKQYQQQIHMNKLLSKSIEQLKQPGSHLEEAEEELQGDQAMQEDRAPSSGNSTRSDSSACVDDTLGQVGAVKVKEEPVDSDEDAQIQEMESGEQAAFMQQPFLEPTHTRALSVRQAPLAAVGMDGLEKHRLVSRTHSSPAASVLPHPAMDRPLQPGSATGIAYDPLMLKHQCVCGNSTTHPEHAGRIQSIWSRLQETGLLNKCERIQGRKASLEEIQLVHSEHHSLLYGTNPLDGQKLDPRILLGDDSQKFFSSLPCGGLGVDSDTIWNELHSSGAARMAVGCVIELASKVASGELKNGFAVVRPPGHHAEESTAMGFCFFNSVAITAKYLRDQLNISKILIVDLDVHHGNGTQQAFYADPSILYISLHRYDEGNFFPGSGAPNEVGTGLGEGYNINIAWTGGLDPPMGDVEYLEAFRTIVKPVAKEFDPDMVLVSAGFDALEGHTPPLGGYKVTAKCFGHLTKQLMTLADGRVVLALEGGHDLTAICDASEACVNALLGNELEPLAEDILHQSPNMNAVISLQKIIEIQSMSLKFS", "assay": "HDAC enzyme activity test, HDAC9", "details": "Table 11, eleven HDAC isozymes; read-out: Inhibition ability (IC50) against HDAC9", "description": "as §1"}, "human recombinant HDAC6": {"molecular_target": "T2, human recombinant HDAC6 (Homo sapiens, UniProt Q9UBN7)", "T2 construct": "purchased Calibiochem Co. (so in the source) 382180", "T2 sequence (Q9UBN7 1-1215)": "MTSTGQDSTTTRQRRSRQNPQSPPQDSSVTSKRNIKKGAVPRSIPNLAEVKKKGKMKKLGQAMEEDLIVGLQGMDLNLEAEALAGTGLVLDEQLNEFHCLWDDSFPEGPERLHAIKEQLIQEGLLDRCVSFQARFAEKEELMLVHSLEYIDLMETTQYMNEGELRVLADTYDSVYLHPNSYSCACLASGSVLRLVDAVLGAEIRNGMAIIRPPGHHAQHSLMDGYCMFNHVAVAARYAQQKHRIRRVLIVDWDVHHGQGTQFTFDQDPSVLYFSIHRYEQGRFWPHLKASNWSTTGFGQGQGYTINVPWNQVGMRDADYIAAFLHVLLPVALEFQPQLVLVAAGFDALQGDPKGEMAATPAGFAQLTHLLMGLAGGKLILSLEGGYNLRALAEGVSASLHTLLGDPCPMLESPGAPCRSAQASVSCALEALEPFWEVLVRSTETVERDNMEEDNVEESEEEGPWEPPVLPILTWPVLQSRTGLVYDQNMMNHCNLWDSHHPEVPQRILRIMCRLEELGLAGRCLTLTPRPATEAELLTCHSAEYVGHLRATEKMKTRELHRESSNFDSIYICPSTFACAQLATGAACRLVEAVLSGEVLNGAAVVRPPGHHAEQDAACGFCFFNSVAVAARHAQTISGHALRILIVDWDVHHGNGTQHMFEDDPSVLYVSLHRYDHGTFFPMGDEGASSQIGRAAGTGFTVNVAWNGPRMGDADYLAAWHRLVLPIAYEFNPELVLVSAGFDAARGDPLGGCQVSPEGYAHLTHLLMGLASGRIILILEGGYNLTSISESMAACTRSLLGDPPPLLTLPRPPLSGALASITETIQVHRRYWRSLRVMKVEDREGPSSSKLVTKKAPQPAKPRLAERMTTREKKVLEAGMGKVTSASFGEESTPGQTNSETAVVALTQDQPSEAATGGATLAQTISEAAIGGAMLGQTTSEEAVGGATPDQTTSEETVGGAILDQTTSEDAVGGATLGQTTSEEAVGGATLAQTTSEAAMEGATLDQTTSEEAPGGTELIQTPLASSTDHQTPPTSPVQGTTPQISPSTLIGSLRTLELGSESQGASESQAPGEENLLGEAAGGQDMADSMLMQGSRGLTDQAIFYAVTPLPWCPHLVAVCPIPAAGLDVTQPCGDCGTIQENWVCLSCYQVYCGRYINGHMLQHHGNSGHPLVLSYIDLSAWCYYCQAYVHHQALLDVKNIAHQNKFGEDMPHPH", "assay": "HDAC enzyme activity test, HDAC6", "details": "for Selectivity for HDAC6, HD1/HD6: ratio HDAC1 IC50 / HDAC6 IC50", "description": "as §1"}, "HDAC11": {"molecular_target": "T3, HDAC11 (Homo sapiens, UniProt Q96DB2)", "T3 sequence (Q96DB2 1-347)": "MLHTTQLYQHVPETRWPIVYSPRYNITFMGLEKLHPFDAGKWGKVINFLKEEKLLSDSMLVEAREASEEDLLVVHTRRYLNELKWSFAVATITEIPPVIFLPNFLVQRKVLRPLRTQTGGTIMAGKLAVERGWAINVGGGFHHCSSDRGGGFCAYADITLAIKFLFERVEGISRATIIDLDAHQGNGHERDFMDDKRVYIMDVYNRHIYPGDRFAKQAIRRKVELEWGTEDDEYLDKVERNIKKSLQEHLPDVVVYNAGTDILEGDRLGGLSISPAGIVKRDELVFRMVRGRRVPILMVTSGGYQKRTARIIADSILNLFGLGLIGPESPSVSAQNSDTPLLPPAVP", "assay": "HDAC enzyme activity test, HDAC11", "details": "Table 11, eleven HDAC isozymes; read-out: Inhibition ability (IC50) against HDAC11", "description": "as §1"}, "[1]": {"details": "Table 11, eleven HDAC isozymes, read-out: Inhibition ability (IC50) against HDAC6"}, "[2]": {"details": "Table 12, read-out: Inhibition ability (IC50) HDAC6"}}, "note": "Read-outs that look alike come from different tables or passages of the source."}
{"smiles": "CN1CCN(C(=O)N(CCCCCCC(=O)NO)c2ccc(-c3ccc4cnn(C)c4c3)cc2)CC1", "note": "[CKD-581, reference compound]", "values": [{"measurement": "IC50", "setting": "HDAC7; Table 11, eleven HDAC isozymes, read-out: Inhibition ability (IC50) against HDAC7", "value": 0.0106, "unit": "µM"}, {"measurement": "IC50", "setting": "HDAC9", "value": 0.00042, "unit": "µM"}, {"measurement": "IC50", "setting": "human recombinant HDAC6; [1]", "value": 0.00239, "unit": "µM"}, {"measurement": "IC50", "setting": "HDAC11", "value": 0.00152, "unit": "µM"}]}
{"smiles": "O=C(NO)c1ccc(Cn2c3c(c4ccccc42)C(=O)C(CN2CCOCC2)CC3)cc1", "note": "(stereo not drawn) [Compound 87, N-hydroxy-4-((3-(morpholinomethyl)-4-oxo-1,2,3,4-tetrahydrocarbazol-9-yl)methyl)benzamide]", "values": [{"measurement": "IC50", "setting": "HDAC7", "value": 3.28, "unit": "µM"}, {"measurement": "IC50", "setting": "HDAC9", "value": 1.75, "unit": "µM"}, {"measurement": "IC50", "setting": "human recombinant HDAC6; [1]", "value": 0.0131, "unit": "µM"}, {"measurement": "Selectivity for HDAC6, HD1/HD6", "setting": "human recombinant HDAC6; Table 12", "value": 411.8}, {"measurement": "IC50", "setting": "human recombinant HDAC6; [2]", "value": 0.00745, "unit": "µM"}, {"measurement": "IC50", "setting": "human recombinant HDAC6; data of Table 11, read-out: IC50 against HDAC6", "value": 0.013, "unit": "µM"}, {"measurement": "selectivity for HDAC6 over HDAC1", "setting": "human recombinant HDAC6; from the data of Table 11", "value": "more than 800 times"}, {"measurement": "IC50", "setting": "HDAC11", "value": 37.5, "unit": "µM"}]}
{"smiles": "CN1CCN(CC2CCc3c(c4cc(F)ccc4n3Cc3ccc(C(=O)NO)cc3)C2=O)CC1", "note": "(stereo not drawn) [Compound 142, 4-((6-fluoro-3-((4-methylpiperazin-1-yl)methyl)-4-oxo-1,2,3,4-tetrahydrocarbazol-9-yl)methyl)-N-hydroxybenzamide]", "values": [{"measurement": "IC50", "setting": "HDAC7", "value": 4.53, "unit": "µM"}, {"measurement": "IC50", "setting": "HDAC9", "value": 1.88, "unit": "µM"}, {"measurement": "IC50", "setting": "human recombinant HDAC6; [1]", "value": 0.00355, "unit": "µM"}, {"measurement": "Selectivity for HDAC6, HD1/HD6", "setting": "human recombinant HDAC6; Table 12", "value": 568.3}, {"measurement": "IC50", "setting": "human recombinant HDAC6; [2]", "value": 0.0047, "unit": "µM"}, {"measurement": "IC50", "setting": "HDAC11", "value": 11.1, "unit": "µM"}]}
{"smiles": "CC1(C)CC(=O)c2c(C(F)(F)F)nn(Cc3ccc(C(=O)NO)cc3)c2C1", "note": "[Compound 237, 4-((6,6-dimethyl-4-oxo-3-(trifluoromethyl)-4,5,6,7-tetrahydro-1H-indazol-1-yl)methyl)-N-hydroxybenzamide]", "values": [{"measurement": "IC50", "setting": "HDAC9", "value": 16.9, "unit": "µM"}, {"measurement": "IC50", "setting": "human recombinant HDAC6; [1]", "value": 0.0322, "unit": "µM"}, {"measurement": "Selectivity for HDAC6, HD1/HD6", "setting": "human recombinant HDAC6; Table 12", "value": 219.3}, {"measurement": "IC50", "setting": "human recombinant HDAC6; [2]", "value": 0.0178, "unit": "µM"}, {"measurement": "selectivity for HDAC6 over HDAC1", "setting": "human recombinant HDAC6; from the data of Table 12", "value": "more than 219 times"}, {"measurement": "IC50", "setting": "HDAC11", "value": 33.9, "unit": "µM"}]}
{"smiles": "O=C(NO)c1ccc(Cn2c3c(c4ccccc42)C(=O)N(CCN2CCOCC2)CC3)cc1", "note": "[Compound 249, N-hydroxy-4-((2-(2-morpholinoethyl)-1-oxo-1,2,3,4-tetrahydropyrido[4,3-b]indol-5-yl)methyl)benzamide]", "values": [{"measurement": "IC50", "setting": "HDAC7", "value": 3.42, "unit": "µM"}, {"measurement": "IC50", "setting": "HDAC9", "value": 1.03, "unit": "µM"}, {"measurement": "IC50", "setting": "human recombinant HDAC6; [1]", "value": 0.00509, "unit": "µM"}, {"measurement": "Selectivity for HDAC6, HD1/HD6", "setting": "human recombinant HDAC6; Table 12", "value": 162.2}, {"measurement": "IC50", "setting": "human recombinant HDAC6; [2]", "value": 0.0213, "unit": "µM"}, {"measurement": "IC50", "setting": "HDAC11", "value": 5.53, "unit": "µM"}]}
